The text below walks through data of patent US20250275938A1, “COMPOSITIONS AND METHODS FOR TREATMENT OF CANCER” (SCIROSBIO (FZC), priority 2022, published 2025).

Data set [1] deals with human hepatocellular carcinoma (HepG2) cells. Briefly: MTT cell viability assay, HepG2. The format is cell-based. Particulars: 24 hours. Here is the method: Cell lines and culture conditions. A human hepatocellular carcinoma (HepG2) and ovarian cancer (SKOV3) cells were obtained from National Centre for Cell Science (NCCS), Pune, India. The cells HepG2 and SKOV3 were sub-cultured in Eagle's Minimum Essential Medium (EMEM) and McCoy's 5a supplemented with 10% FBS at 5% CO2 and 37° C. […] The cells were allowed to attach 70% to the surface prior to treatment. A stock solution of all the drugs (10 mg/ml) was made in distilled H2O and diluted to the required concentrations. Suspensions were aspirated 10 times before treatment. Cells treated with vehicle control were used as a control.
A general note: Tetrazolium dyes change colour on reduction, which living cells bring about.

The next data set concerns VEGF. Briefly: Immunohistochemistry of tumor sections, VEGF. The format is in vivo, rat. Particulars: i.p. 7 days; tumor-control 73.58%. Here is the method:
Immunohistochemistry. For immunohistochemistry (IHC) analysis, 4 μm thick tissue sections were deparaffinized in xylene and hydrated by immersing in a series of graded ethanol concentration (100%, 95%, 75% and 50%). Endogenous peroxidase activity was blocked by incubating sections in 3% H2O2 solution prepared in methanol at room temperature for 10 minutes and were washed with PBS twice for 5 minutes each. Antigen retrieval was performed by immersing the slides in 300 ml of retrieval buffer (10 mM citrate buffer, pH 6.0) for one hour at 100° C. and were rinsed twice in PBS. Sections were then incubated with approximately 100 μl diluted primary antibodies of Ki67 (1:100 dilution, Elabscience, Wuhan, China) and Vascular Endothelial Growth Factor (VEGF) (1:100 dilution, Elabscience, Wuhan, China) for 30 minutes at room temperature. The slides were then washed twice with PBS and were then incubated with approximately 100 μl of diluted secondary antibody (Cat No. E-IR-R213, Elabscience, Wuhan, China) at room temperature for 30 minutes. Slides were then washed in PBS for 5 minutes, followed by incubation with approximately 100 μl diluted Horse Radish Peroxidase (HRP) conjugate for 30 minutes. […] The staining intensities were quantified using IHC Profiler, a plugin in ImageJ software, to determine the H-score (Histo score).

The subject of data set [2] is rat brain tissue. Nature of the data set: Western blotting and ELISA of brain tissue proteins. The data set is classed as in vivo. Particulars: i.p. 7 days.
The next data set relates to TBARS in U87MG cells. Briefly: TBARS (MDA) assay, U87MG. The data set is classed as cell-based, human. Particulars: vs control. Here is the method:
Determination of TBARS levels. TBARS (thiobarbituric acid reactive substances), by-products of lipid peroxidation, were analyzed by measuring the concentration of malondialdehyde (MDA). The levels of MDA were measured in cell lysates using TBARS assay (Catalog No. 10009055, Cayman Chemical, Ann Arbor, USA). The concentration of lipid peroxides was calculated as an MDA equivalent using the extinction coefficient for the MDA-TBA complex of 1.56×10^5 M−1 cm^−1 at 532 nm.

In data set [3] the test system is SOD, CAT, GPx, GSH in C6 glioma cells. Briefly: Antioxidant marker kits (SOD, CAT, GPx, GSH), C6. Particulars: vs control. The data set is classed as cell-based, rat. Here is the method:
(§1) Antioxidant markers. […] All experiments were carried out according to the manufacturer's instructions. Three independent biological replicates were performed for each condition.

In data set [4] the test system is SOD, CAT, GPx, GSH in U87MG glioma cells. Briefly: Antioxidant marker kits (SOD, CAT, GPx, GSH), U87MG. The format is cell-based, human. Particulars: vs control. Here is the method: as §1
Data set [5] concerns rat brain tissue. Briefly: Gene expression (qRT-PCR) in brain tissue of glioma-induced rats. The format is in vivo. Particulars: i.p. 7 days; vs tumor-control. Here is the method: Quantitative RT-PCR analysis of antioxidant enzymes (SOD and CAT), oxidative stress marker (Nrf-2), and apoptosis markers (BCL2 and Caspase-9). Total RNA from all experimental groups was isolated using RNA Express reagent (HiMedia, India) and the respective cDNAs were synthesized using a Hi-c-DNA Synthesis Kit (HiMedia, India). Quantitative RT-PCR was carried out using a CFX 96 thermocycler (Bio-Rad, Hercules, CA) and TB Green Premix Ex Taq 1 (Takara Bio, Otsu, Japan) to detect mRNA. Independent experiments were conducted in triplicate. The cycle threshold (Ct), representing a positive PCR result, is defined as the cycle number at which a sample's fluorescence intensity crossed the threshold automatically determined by the CFX 96.
The relative changes in gene expression were calculated with the 2^−ΔΔCt method, wherein ΔΔCt=(Cttarget gene−Ctβ-actin) sample−([…]) calibrator.
The qPCR analyses were performed to measure the expression levels of genes associated with anti-Warburg effect. The total RNA was extracted from the cell lysates and brain tissues of all the experimental groups using TRIZOL reagent (Takara Bio, Shiga, Japan). Quantitative RT-PCR was carried out using a CFX96 Real Time PCR Detection System (Bio-Rad, California, USA) and TB Green Premix Ex Taq I (Takara Bio, Shiga, Japan) to detect messenger ribonucleic acid (mRNA). […]
For orientation: Real-time PCR tracks product formation cycle by cycle.

Data set [6] in a line: LC/MS of drugs and active metabolites in plasma and brain (blood brain barrier). The format is in vivo, rat. Here is the method:
T, M & E (Sigma Aldrich, St. Louis, USA) were dissolved in sterile water and administered intra peritoneally for 7 days (from day 21 to day 27; where the day of tumor induction is considered day 0) to a rat with the dose specified in Table-4 (TME: 50+80+150 mg/kg body weight). After 7 days of treatment (on day 28), blood (plasma) was collected and the rat was euthanized, immediately the brain tissue was collected and stored at −80° C. The brain tissue was then processed accordingly to measure active metabolites through LC/MS.
To 100 μl of plasma or brain (0.5 g crushed in 0.5 mL of sterile water), 20 μl of the working internal standard solution was added. The samples were deproteinised with acetonitrile and the supernatant (100 μl) was injected into the chromatographic system. For the brain, as described above, ciprofloxacin solution (20 μl) was added to 100 μl of crushed brain. Then, repeating the plasma sample process, 20 μl of the solution was injected into the chromatographic system.

Where [7] appears, read: triple combination TME 50+80+150 mg/kg i.p. 7 days, NA = not detected.

Regarding `O=C(O[C@@H]1Cc2c(O)cc(O)cc2O[C@@H]1c1cc(O)c(O)c(O)c1)c1cc(O)c(O)c(O)c1` [EGCG, [(2R,3R)-5,7-dihydroxy-2-(3,4,5-trihydroxyphenyl)-3,4-dihydro-2H-chromen-3-yl] 3,4,5-trihydroxybenzoate], the “cell viability (MTT), in words” value in data set [1] is listed as “reduction in cell viability in a dose-dependent fashion”. In the data set on VEGF, the “cytoplasmic positivity for VEGF (H-score)” value is 44.45%. Also, in the data set on rat brain tissue [2], the “protein levels of HIF-1α” value is “significantly reduced” and the “protein levels of Nrf-2” value is “significantly reduced”. For the same compound, the TBARS levels result in the data set with TBARS in U87MG cells is listed as “significantly elevated”. Also, the “concentrations of antioxidant markers SOD, CAT, GPx, and GSH” value in data set [3] was “significantly enhanced”. In data set [4], the “concentrations of antioxidant markers SOD, CAT, GPx, and GSH” value was “significantly enhanced”. In addition, in the data set on rat brain tissue [5], the “gene expression levels of Nrf-2 and HIF-1α” value is “reduced expression”. Also, the “transport across the blood brain barrier, in words” value in data set [6] (administered individually and in combination) is “crossed the BBB in its native form”. In data set [6] (individually treated T, M and E, i.p. 7 days, NA = not detected), the “Detected mass in LC-MS Brain” value was found to be 466.11. In addition, in data set [6] (setting [7]), the “Detected mass in LC-MS Brain” value was 456.11 and the “Detected mass in LC-MS Plasma” value is given as 452.91.
